Test results from ChEMBL document CHEMBL1201862, “PubChem BioAssay data set” (2004).
pIC50: −log10 of the molar value. Activity calls are given as the source filed them.

Tests used:
Mu-type opioid receptor = Mu-type opioid receptor (Homo sapiens, UniProt P35372); assay: HTS Image-Based Screen for Agonists of the MOR Receptor. [Related pubchem assays (depositor defined):AID1777, AID1785, AID1786, AID2133]; assay type: functional;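 also: imaging of beta-arrestin GFP recruitment into spots after receptor activation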
Mu-type opioid receptor, sequence (P35372 whole entry): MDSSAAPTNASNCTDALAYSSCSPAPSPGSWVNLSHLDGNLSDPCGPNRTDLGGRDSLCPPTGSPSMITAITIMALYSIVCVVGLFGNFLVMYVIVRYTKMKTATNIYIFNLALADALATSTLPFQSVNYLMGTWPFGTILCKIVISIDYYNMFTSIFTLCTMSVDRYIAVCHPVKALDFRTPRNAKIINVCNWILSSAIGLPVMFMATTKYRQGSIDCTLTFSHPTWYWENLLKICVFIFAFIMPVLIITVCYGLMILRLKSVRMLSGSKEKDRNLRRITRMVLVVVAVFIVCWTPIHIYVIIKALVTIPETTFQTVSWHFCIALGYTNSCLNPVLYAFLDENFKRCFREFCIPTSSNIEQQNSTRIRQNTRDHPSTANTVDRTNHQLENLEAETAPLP

Beta-galactosidase = Beta-galactosidase (Escherichia coli, UniProt Q8VNN2); assay type: functional
Beta-galactosidase, sequence (Q8VNN2 whole entry): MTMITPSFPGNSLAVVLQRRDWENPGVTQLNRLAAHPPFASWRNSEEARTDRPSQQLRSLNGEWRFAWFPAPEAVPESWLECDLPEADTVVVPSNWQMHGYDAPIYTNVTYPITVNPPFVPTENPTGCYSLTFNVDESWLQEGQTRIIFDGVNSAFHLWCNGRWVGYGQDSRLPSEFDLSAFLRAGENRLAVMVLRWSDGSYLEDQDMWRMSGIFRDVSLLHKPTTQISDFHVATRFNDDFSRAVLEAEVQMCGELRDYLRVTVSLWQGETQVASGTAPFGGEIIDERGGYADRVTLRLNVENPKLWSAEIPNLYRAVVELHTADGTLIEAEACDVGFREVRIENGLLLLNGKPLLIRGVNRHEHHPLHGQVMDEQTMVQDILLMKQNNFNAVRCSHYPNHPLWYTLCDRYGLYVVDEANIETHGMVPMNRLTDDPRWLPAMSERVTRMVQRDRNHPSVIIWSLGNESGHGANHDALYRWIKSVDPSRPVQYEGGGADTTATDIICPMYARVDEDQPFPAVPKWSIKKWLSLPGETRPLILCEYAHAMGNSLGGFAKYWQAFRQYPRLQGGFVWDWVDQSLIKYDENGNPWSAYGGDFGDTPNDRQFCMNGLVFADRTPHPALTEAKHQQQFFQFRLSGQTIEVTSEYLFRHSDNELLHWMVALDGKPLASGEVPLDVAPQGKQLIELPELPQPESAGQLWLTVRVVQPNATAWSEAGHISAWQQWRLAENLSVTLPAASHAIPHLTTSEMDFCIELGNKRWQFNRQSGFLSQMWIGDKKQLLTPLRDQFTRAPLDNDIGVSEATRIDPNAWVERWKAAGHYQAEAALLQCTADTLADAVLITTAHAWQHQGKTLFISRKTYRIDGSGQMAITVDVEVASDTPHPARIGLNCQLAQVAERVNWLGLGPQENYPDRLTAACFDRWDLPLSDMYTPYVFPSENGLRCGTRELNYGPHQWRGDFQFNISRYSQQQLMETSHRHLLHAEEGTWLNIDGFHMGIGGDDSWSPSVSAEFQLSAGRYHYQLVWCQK

[1] = molecular target: T1, Delta-type opioid receptor (Homo sapiens, UniProt P41143); assay: HTS Image-Based Screen for Agonists of the DOR Receptor. [Related pubchem assays (depositor defined):AID1777, AID1786, AID2133]; assay type: functional
T1 sequence (P41143 whole entry): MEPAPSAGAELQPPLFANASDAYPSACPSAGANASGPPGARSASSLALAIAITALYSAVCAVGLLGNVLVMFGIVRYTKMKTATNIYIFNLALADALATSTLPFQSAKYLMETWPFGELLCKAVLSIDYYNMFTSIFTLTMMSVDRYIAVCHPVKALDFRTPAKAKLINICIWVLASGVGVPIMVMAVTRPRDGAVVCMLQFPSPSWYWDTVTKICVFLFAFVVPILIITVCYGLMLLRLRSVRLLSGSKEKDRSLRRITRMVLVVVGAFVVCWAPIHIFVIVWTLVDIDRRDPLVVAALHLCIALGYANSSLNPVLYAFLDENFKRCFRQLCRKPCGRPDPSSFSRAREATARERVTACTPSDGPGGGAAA

[2] = molecular target: T2, Kappa-type opioid receptor (Homo sapiens, UniProt P41145); assay type: functional
T2 sequence (P41145 whole entry): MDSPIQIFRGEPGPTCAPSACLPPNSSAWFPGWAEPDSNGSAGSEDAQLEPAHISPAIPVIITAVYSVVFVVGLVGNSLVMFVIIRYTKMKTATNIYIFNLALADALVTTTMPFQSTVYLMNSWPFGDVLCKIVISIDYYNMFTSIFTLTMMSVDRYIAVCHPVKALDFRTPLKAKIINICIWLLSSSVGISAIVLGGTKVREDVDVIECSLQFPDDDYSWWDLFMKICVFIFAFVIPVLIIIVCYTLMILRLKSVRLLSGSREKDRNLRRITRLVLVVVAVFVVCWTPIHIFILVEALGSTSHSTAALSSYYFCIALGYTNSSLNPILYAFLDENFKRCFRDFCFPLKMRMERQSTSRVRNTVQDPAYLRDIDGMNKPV

[3] = molecular target: T1, Delta-type opioid receptor; assay: HTS Image-Based Screen for Antagonists of the DOR Receptor. [Related pubchem assays (depositor defined):AID1777, AID1785, AID1786, AID2133]; assay type: functional
[4] = molecular target: T2, Kappa-type opioid receptor; assay type: functional; remark: listed apart in the source
[5] = viability of uninfected HEp-2 cells – cell-based, HTS, cytotoxicity control for RSV inhibitor project, dose response (AID 2410); assay type: functional; details: human respiratory syncytial virus
[6] = molecular target: T3, Tyrosine-protein phosphatase non-receptor type 22 (Homo sapiens, UniProt Q9Y2R2); assay type: functional
T3 sequence (Q9Y2R2 whole entry): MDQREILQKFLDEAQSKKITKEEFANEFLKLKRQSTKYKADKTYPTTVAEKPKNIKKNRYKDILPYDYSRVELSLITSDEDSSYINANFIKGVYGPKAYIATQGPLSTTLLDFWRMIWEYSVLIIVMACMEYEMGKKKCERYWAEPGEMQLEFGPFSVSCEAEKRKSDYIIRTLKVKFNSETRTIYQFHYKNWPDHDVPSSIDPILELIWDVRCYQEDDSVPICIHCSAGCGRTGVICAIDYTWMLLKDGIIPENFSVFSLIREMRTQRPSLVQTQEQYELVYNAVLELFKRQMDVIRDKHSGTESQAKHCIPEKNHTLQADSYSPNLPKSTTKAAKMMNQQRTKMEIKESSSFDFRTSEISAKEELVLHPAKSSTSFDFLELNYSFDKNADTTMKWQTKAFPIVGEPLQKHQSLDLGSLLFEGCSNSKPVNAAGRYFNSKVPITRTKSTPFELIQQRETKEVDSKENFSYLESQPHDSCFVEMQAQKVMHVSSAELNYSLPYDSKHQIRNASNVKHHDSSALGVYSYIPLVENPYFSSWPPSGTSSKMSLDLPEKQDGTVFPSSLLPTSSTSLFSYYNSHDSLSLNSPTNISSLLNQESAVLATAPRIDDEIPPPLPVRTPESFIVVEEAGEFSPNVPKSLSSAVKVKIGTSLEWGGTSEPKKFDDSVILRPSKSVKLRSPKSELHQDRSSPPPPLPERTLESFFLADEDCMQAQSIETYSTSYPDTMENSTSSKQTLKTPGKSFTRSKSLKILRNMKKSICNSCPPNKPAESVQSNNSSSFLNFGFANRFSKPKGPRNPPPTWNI

Hexokinase-1 = molecular target: T4, Hexokinase-1 (Homo sapiens, UniProt P19367); assay: HK1 enzyme activation by HKDC1 hits – biochemical, selectivity assay for HKDC1 activator project, dose response (AID 504762); assay type: functional
T4 sequence (P19367 whole entry): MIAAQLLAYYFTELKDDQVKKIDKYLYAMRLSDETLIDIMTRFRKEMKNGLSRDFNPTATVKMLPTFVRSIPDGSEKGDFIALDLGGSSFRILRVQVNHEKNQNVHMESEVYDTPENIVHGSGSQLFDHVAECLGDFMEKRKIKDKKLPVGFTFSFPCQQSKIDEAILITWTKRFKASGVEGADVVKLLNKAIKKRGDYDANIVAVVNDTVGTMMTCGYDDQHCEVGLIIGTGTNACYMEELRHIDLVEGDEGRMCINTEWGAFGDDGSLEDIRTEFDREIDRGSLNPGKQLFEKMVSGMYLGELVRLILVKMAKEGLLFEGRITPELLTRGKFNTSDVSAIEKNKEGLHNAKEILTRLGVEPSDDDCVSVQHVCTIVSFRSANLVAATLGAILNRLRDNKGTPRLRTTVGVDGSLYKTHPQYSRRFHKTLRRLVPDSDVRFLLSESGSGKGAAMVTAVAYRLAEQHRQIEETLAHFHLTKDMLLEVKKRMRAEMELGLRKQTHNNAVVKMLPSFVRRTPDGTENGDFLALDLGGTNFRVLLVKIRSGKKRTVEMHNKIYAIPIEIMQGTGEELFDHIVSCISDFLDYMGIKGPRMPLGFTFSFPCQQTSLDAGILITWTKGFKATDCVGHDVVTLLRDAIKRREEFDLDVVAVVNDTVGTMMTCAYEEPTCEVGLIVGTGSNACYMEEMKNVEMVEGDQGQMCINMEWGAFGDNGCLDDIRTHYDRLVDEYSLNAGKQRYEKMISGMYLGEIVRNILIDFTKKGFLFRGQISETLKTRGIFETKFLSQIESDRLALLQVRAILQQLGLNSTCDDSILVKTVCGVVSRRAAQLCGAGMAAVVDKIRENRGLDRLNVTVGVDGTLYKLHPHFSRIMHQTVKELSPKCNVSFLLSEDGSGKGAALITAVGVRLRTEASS

Hexokinase HKDC1 = molecular target: T5, Hexokinase HKDC1 (Homo sapiens, UniProt Q2TB90); assay: activation of HKDC1 glucose phosphorylation – biochemical, W721R variant, dose response (AID 504730); assay type: functional
T5 sequence (Q2TB90 whole entry): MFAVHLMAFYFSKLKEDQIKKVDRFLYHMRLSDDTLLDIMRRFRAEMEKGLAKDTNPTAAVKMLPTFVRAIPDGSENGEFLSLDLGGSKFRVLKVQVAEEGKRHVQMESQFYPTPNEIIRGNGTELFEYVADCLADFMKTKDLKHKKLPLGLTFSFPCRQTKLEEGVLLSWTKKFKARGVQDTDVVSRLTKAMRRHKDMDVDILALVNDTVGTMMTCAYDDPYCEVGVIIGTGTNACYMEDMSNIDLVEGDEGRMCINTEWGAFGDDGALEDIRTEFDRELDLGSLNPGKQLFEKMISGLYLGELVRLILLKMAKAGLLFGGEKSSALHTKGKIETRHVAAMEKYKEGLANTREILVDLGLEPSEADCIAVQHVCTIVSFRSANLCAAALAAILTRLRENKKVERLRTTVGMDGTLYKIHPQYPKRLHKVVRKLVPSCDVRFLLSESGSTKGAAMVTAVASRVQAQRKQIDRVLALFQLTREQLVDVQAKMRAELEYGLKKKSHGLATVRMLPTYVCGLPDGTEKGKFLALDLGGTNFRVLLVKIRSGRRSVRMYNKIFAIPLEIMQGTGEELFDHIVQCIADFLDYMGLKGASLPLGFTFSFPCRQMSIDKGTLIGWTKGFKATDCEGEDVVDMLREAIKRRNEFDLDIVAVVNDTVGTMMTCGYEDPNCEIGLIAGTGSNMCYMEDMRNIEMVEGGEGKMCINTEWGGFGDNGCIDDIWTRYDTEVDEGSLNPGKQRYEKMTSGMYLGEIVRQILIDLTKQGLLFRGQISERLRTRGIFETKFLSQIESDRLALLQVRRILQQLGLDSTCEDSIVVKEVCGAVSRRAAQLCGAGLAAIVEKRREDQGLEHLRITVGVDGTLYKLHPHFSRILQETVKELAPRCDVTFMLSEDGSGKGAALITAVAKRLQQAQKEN

[7] = molecular target: T3, Tyrosine-protein phosphatase non-receptor type 22; assay type: functional; remark: listed apart in the source
[8] = molecular target: T6, Tyrosine-protein phosphatase non-receptor type 7 (Homo sapiens, UniProt P35236); assay type: functional
T6 sequence (P35236 whole entry): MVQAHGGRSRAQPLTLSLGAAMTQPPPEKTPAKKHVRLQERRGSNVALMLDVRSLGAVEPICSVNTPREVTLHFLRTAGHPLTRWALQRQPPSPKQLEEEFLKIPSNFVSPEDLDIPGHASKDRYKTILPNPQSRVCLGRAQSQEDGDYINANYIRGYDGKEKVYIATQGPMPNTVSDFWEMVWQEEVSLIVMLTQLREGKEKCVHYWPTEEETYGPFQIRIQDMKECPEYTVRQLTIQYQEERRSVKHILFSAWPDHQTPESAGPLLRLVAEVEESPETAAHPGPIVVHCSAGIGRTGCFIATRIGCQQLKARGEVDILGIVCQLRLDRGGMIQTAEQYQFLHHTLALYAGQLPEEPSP

Cytochrome P450 1A2 = molecular target: T7, Cytochrome P450 1A2 (Homo sapiens, UniProt P05177);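 also: PubChem cytochrome P450 panel assay, CYP1A2 panel member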
T7 sequence (P05177 whole entry): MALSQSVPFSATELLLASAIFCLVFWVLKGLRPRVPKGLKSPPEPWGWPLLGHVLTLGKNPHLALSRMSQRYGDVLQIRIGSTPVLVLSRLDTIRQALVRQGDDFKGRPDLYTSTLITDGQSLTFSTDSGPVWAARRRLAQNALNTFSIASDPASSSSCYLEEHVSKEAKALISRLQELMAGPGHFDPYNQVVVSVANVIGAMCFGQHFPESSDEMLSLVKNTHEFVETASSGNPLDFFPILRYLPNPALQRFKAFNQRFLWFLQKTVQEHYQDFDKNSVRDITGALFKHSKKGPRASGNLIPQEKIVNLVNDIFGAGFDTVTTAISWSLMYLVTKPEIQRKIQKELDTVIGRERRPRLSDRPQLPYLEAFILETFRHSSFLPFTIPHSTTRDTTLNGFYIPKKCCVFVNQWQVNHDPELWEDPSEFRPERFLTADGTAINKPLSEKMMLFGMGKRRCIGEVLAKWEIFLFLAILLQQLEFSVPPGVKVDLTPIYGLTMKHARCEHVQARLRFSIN

cells = assay type: functional
HEK293 [9] = assay: inhibition of NOD1-driven NF-kB reporter – cell-based, luminescence, uHTS, primary screen (AID 1578); assay type: functional; details: Homo sapiens
HEK293 [10] = assay: cells; assay type: functional, cell-based; details: Homo sapiens
[11] = THP-1 cell cytotoxicity, dose response, cytotoxicity control for non-replicating M. tuberculosis project (AID 489025); assay type: functional
[12] = molecular target: Nucleotide-binding oligomerization domain-containing protein 2 (Homo sapiens, UniProt Q9HC29); assay: inhibition of NOD2-driven NF-kB reporter – cell-based, luminescence, uHTS, HEK293 (AID 1566); assay type: functional
Nucleotide-binding oligomerization domain-containing protein 2, sequence (Q9HC29 whole entry, the tested form may be a part): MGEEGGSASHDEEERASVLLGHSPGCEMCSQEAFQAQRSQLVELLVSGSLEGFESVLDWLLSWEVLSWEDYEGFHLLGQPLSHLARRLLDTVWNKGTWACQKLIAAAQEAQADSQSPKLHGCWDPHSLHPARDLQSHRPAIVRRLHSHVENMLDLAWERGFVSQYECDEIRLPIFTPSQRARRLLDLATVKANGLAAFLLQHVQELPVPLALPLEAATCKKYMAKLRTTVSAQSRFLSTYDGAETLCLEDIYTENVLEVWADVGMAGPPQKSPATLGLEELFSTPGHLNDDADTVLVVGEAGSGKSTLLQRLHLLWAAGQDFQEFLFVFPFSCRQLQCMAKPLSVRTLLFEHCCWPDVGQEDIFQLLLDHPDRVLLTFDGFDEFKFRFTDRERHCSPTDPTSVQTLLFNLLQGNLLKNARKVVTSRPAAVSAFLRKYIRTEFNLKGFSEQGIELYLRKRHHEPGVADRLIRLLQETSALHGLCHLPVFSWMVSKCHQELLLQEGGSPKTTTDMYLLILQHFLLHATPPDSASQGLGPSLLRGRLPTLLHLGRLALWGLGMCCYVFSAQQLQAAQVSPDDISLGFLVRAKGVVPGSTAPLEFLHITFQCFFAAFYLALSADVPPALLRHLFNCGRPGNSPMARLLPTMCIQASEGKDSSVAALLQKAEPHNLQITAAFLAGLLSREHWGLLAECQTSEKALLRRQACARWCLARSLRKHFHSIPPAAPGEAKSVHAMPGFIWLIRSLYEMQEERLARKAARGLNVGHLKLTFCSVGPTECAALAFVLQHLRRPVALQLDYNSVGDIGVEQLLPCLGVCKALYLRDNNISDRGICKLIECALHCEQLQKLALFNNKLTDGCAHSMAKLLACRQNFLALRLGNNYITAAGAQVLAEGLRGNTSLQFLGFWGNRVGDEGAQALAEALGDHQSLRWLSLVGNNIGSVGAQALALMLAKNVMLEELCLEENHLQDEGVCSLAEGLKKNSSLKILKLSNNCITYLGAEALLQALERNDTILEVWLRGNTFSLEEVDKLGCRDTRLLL

HEK293 [13] = assay: cells; assay type: functional, cell-based; details: Homo sapiens; remark: listed apart in the source
HEK293 [14] = assay: NOD2 signaling inhibitors in MDP-stimulated cells, cell-based, uHTS, luminescence (AID 2001); assay type: functional; details: Homo sapiens
HEK293 [15] = assay: cells; assay type: functional, cell-based; details: Homo sapiens; remark: listed apart in the source
Exodeoxyribonuclease V = Exodeoxyribonuclease V (Escherichia coli (strain K12), UniProt P04993+P07648+P08394); assay: RecBCD inhibition via phage-restricted bacterial growth – absorbance, V66 E. coli, mutant T4 phage, counter-screen for AddAB inhibitor project, dose response (AID 492957); assay type: functional, cell-based, Escherichia coli str. K-12 substr. MG1655
[16] = Counterscreen for AddAB inhibitors: absorbance-based bacterial cell-based high throughput dose response assay for inhibitors of bacterial viability. [Related pubchem assays (depositor defined):AID435030, AID449728, AID449731, AID488942, AID488955, AID488956]; assay type: functional
[17] = molecular target: T8, Mannose-6-phosphate isomerase (Homo sapiens, UniProt P34949); assay: phosphomannose isomerase inhibition – biochemical, fluorescence intensity, confirmation (AID 1535)
T8 sequence (P34949 whole entry): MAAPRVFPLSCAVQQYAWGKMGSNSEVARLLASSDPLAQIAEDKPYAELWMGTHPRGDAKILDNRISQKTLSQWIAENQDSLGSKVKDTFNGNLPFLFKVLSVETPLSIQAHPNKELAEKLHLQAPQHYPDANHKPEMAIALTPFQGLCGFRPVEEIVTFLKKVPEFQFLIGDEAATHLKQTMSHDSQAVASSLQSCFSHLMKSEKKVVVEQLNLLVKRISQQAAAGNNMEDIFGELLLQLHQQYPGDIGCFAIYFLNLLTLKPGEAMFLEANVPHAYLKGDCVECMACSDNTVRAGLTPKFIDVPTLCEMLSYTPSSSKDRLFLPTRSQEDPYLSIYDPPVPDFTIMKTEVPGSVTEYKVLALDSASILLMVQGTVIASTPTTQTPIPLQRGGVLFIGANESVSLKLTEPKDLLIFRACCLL

Phosphomannomutase 2 = Phosphomannomutase 2 (Homo sapiens, UniProt O15305); assay: Counter screen SAR assay for PMM2 inhibitors via a fluorescence intensity assay. [Related pubchem assays (depositor defined):AID1545, AID1574]
Phosphomannomutase 2, sequence (O15305 whole entry): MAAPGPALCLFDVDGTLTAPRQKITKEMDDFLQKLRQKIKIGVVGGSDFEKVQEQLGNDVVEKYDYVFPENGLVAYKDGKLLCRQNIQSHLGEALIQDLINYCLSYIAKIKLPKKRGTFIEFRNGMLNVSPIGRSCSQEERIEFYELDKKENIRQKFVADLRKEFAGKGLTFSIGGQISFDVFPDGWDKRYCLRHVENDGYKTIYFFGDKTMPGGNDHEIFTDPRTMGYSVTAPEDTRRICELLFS

## Nc1c2c(nc3sc4c(c13)CCCC4)CCCC2
Mu-type opioid receptor
  EC50: > 32 µM (inactive)
Beta-galactosidase
  EC50: > 31.5 µM (inactive)
[1]
  EC50: > 32 µM (inactive)
[2]
  pIC50: 5.16
[3]
  IC50: > 32 µM (inactive)
[4]
  IC50: 9.82 µM (active)
[5]
  CC50: 25.7 µM (active)

## COc1cc(SC#N)ccc1/N=C/c1c(C)[nH]n(-c2ccc(Cl)cc2)c1=O
[6]
  IC50: > 79.4 µM (inactive)
Hexokinase-1
  EC50: > 80 µM (inactive)
Hexokinase HKDC1
  EC50: > 80 µM (inactive)
[7]
  IC50: > 79.4 µM (inactive)
[8]
  IC50: > 79.4 µM (inactive)

## N[C@H]1[C@@H](C(=O)O)[C@H]2C=C[C@H]1C2.O=S(=O)(O)c1ccccc1
Cytochrome P450 1A2
  AC50: inactive

## Nc1nonc1C(=O)N/N=C/c1ccc([N+](=O)[O-])o1
cells
  IC50: 7.01 µM (active)
HEK293 [9]
  EC50: 8.5 µM (active)
HEK293 [10]
  IC50: > 20 µM (inactive)
[11]
  CC50: > 40 µM (active)
[12]
  EC50: 5.54 µM (active)
HEK293 [13]
  IC50: > 20 µM (inactive)
HEK293 [14]
  IC50: > 20 µM (inactive)
HEK293 [15]
  IC50: > 20 µM (inactive)
Exodeoxyribonuclease V
  IC50: 56.4 µM (inactive)
[16]
  IC50: 14.9 µM (inactive)

## CCc1cc(CC)c(/N=c2\ssnc2Cl)c(CC)c1
[17]
  IC50: > 100 µM (inactive)
Phosphomannomutase 2
  IC50: > 100 µM (inactive)
